Here are results for four compounds from patent US20260015592A1, “NEDDYLATION-ACTIVATING ENZYME INHIBITORS AS VIRAL SENSITIZERS AND USES THEREOF” (priority 2022, published 2026).

Residues, ends and D or L forms follow the SMILES beside them. *: point of attachment. Cbz = O=C(OCc1ccccc1)*; CH2F = FC* Where only a bound is given, the exact number is not on record here.

Data set [1] has as its system 786-0 cells.
In data set [2] the test system is NF-κB. The class given is cell-based, Human.
In data set [3] the test system is VSVΔ51. Format: cell-based, vesicular stomatitis virus.
Data set [4] deals with VSVΔ51. The class given is cell-based, vesicular stomatitis virus. The source holds these as a separate data set.
Data set [5] relates to AAV2-Fluc. As to the kind of experiment: AAV2-Fluc production in HEK293 cells, functional titre assay. The class given is cell-based, adeno-associated virus (AAV).
The test system of data set [6] is various human and murine cell lines.
In data set [7] the test system is STAT1 and STAT2. Format: cell-based, Human.
Data set [8] concerns 786-0 cells. As to the kind of experiment: cells. The note with it: Homo sapiens, 786-0, read-out: cell viability.
The test system of data set [9] is STAT1. The class given is cell-based, Human.
Data set [10] has as its system primary murine hepatocytes.
For data set [11], the system named is VSV-wild type-FLuc. Format: cell-based, vesicular stomatitis virus.
Data set [12] has as its system 4T1 mammary carcinoma. The note with it: mouse, in vivo.
For data set [13], the system named is VSVΔ51. Format: cell-based, vesicular stomatitis virus. This is another data set of the same source.
In data set [14] the test system is MG-1. The class given is cell-based, Maraba virus.
In data set [15] the test system is 786-0 cells. The class given is cell-based, Human.
The test system of data set [16] is CT26WT colon carcinoma. The note with it: mouse, in vivo.
Data set [17] relates to VSVΔ51. The class given is cell-based, vesicular stomatitis virus. This is another data set of the same source.
Data set [18] deals with VSVΔ51. The class given is cell-based, vesicular stomatitis virus. The source holds these as a separate data set.
The subject of data set [19] is VSVΔ51. The class given is cell-based, vesicular stomatitis virus. The source holds these as a separate data set.
In data set [20] the test system is 786-0 cells. Format: cell-based, Human. The source holds these as a separate data set.
The subject of data set [21] is IFN-β. The class given is cell-based, Human.

Take `COC(=O)C[C@H](NC(=O)[C@H](C)NC(=O)[C@@H](NC(=O)OCc1ccccc1)C(C)C)C(=O)CF` [Z-VAD-FMK] (Cbz-Val-Ala-Asp(OMe)-CH2F): the cell viability (usually a read-out of living cells in per cent, often relative to untreated cells) in data set [1] is listed as 71%.

On to `NS(=O)(=O)OC[C@@H]1C[C@H](n2ccc3c(N[C@H]4CCc5ccccc54)ncnc32)C[C@@H]1O` [pevonedistat, ((1S,2S,4S)-4-(4-(((S)-2,3-dihydro-1H-inden-1-yl)amino)-7H-pyrrolo[2,3-d]pyrimidin-7-yl)-2-hydroxycyclopentyl) methyl sulfamate], for which, in data set [1], the “cell killing and apoptosis activation” value is “increased cell killing and apoptosis activation”; the “lowest concentration with significant viability differences with vs without VSVΔ51” value is recorded as at least 120 nM. In data set [2], the “NF-κB protein expression in nuclear fractions” value is recorded as “markedly less NF-κB protein expression” and the “transcription of pro-inflammatory cytokines controlled by NF-κB signaling including IFN-β” value was “repressed transcription”. Besides, in data set [3], the “viral titer of VSVΔ51” value was “able to increase the viral titer”. The “increase in VSVΔ51 viral titer” value in [4] is given as “over 30 fold”. The “optimal concentration for AAV2-Fluc enhancement” value in [5] (HEK293, functional titre assay) is 200 to 400 nM. Moreover, in data set [5] (HEK293, treated 60 min post transfection, 72 h, over a range of concentrations), the “enhancement of AAV2-Fluc viral signal” value is given as “up to 2.6 fold”. The “cytotoxicity in combination with VSVΔ51” value in data set [6] is given as “increased cytotoxicity”. Moreover, in data set [7], the “downstream RNA levels of IFN-1 effectors” value is on record as “decreased”; the “total protein levels of STAT1 and STAT2” value is given as “decreased”. In addition, the viability – broadly, the share of living cells, or the viability signal relative to a control – at 1 µM in [8] amounted to 33%. For the same compound, in data set [9], the “phosphorylation levels of STAT1 and STAT2 in response to IFN-β treatment” value is “unable to markedly influence”; the “protein availability of ISGF3 components including STAT1” value is “global reduction in protein availability”; the “transcription of STAT1 and downstream ISGs (IRF7, MX2, IFTM1)” value is “significantly decrease”; the “transcription of STAT1 in the presence of exogenous IFN” value is reported as “inhibiting the transcription of STAT1”. In data set [10], the “viability, compound + VSVΔ51 vs compound only” value is on record as “no significant viability differences”. Further, the “production of wild-type VSV” value in data set [11] is “facilitate production”. In addition, in data set [12], the survival result is listed as “significantly prolonged survival” and the tumor volumes post-treatment entry is given as “significantly smaller”. Further, in [13], the “VSVΔ51 growth (relative titer), multi-step growth curve” value is recorded as “robustly enhance”; the “VSVΔ51 infectivity (fluorescent signal, plaque assay)” value (shortened to “VSVΔ51 infectivity”) was “increased VSVΔ51 infectivity”; the “average plaque diameter (plaque expansion assay)” value is “significantly increased”; the “time of administration capable of increasing VSVΔ51 viral titer” value is on record as 24 hours prior until 4 hours after infection. Moreover, the “viral GFP transgene expression” value in data set [13] is given as “marked increase”. Moreover, in [14], the “production of MG-1” value is reported as “facilitate production”. Moreover, in data set [15], the caspase-8 activity result is “remained significantly increased”, the “cleaved caspase-3 levels” value is reported as “markedly higher levels”, the “full-length poly (ADP-ribose) polymerase (PARP) levels” value is on record as “decreased levels” and the “proportion of Annexin V-positive cells” value is recorded as “significantly greater proportion”. In addition, the “time of peak caspase-8 activity” value in data set [15] is recorded as 36 hpi. For the same compound, in data set [16], the “overall survival after CT26WT re-challenge” value is “improved overall survival”, the “tumor volume progression after CT26WT re-challenge” value was “suppress tumor volume progression more effectively” and the tumor volumes post-treatment result is on record as “significantly smaller”. Moreover, the viral replication result in [17] was “does not increase viral replication”. Moreover, in [18], the VSVΔ51-GFP viral titer entry is recorded as “increases” and the VSVΔ51 viral titer entry was “significantly increased”. For the same compound, in data set [19], the VSVΔ51 infection result is on record as “able to increase VSVΔ51 infection” and the “increase in viral titer” value is given as “over 15 fold”. In data set [20], the “STAT1 transcription factor activity predicted by TFactS” value is reported as “inhibited”, the “downregulation of promyelocytic leukemia protein (PML) gene” value is “approximately 79 fold”, the “expression of genes related to the IFN-1 GO term” value is given as “significantly downregulated” and the genes significantly downregulated is reported as 3,326 genes. Also, the “genes significantly upregulated (P<0.05, log 2-fold change >2)” value in [20] is listed as 3,038 genes.

Take `CCOc1cccc(F)c1C#Cc1cn([C@@H]2O[C@H](CNS(N)(=O)=O)[C@@H](O)[C@H]2O)c2ncnc(N)c12` [TAS4464]: in data set [1], the “VSVΔ51 oncolysis (cell viability, Alamar blue)” value is “enhanced oncolysis”. In addition, the “VSVΔ51 infectivity” value in data set [13] is “increased VSVΔ51 infectivity”.

Take `Nc1ccc(SCC(=O)Nc2ccc3nc(NC(=O)c4ccc(C(F)(F)F)cc4)sc3c2)cc1` [ZM223, N-(6-(2-((4-aminophenyl)thio)acetamido)benzo[d]thiazol-2-yl)-4-(trifluoromethyl) benzamide]: in [21], the IFN-β secretion result is “unable to do the same”. Besides, in data set [13], the “VSVΔ51 infectivity” value is “some viral sensitizing activity”.
